Experimental data published in patent US6271342A, “Sugar-modified cytostatics” (Bayer Aktiengesellschaft, priority 1995, dated 2001).
Converted amounts (≈) assume the structure as drawn.

Assays:
HT 29 [1] = test: Growth inhibition test (MTT) for cytotoxic properties; format: cell-based, human; conditions: Table 1b
Outline: (§1)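 IC50 values come from an MTT read at 540 nm (5 h at 37 °C, 5 mg/ml MTT stock), taken on day 3 and day 6. Cells (HT 29, SW 480; 50,000 cells/ml in RPMI/10% FCS) were pre-cultured 1 day, then compound in DMSO was added.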

SW 480 [2] = test: as above; format: cell-based, human; conditions: Table 1b
Outline: as §1

B 16 F 10 = test: as above; format: cell-based, mouse; conditions: Table 1b
Outline: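 Cells in RPMI 1640 with 10% FCS pre-cultured 1 day at 37° C, then exposed to test substances in DMSO; growth checked after day 3 and day 6. Read-out by MTT, 5 h incubation, isopropanol solubilization, extinction at 540 nm.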

[3] = Cleavage kinetics with human blood (HPLC); format: in vitro ADME; conditions: Table 2b; 37° C.
Excerpt: In Vitro Investigation of the Cleavability of the Glycoconjugates
Cleavage Kinetics With Human Blood

[4] = system: bone marrow parent cells of the mouse; test: CSF-induced proliferation of bone marrow parent cells, in vitro; format: cell-based; conditions: recombinant murine GM-CSF, 7 days
Experimental: Bone marrow cells are flushed out of the femur of mice. 10^5 cells are incubated in McCoy SA medium (0.3% agar) together with recombinant murine GM-CSF (Genzyme; parent cell colony formation) and the substances (10^-4 to 100 μg/ml) at 37° C. and 7% CO2. 7 days later, the colonies ([…]) and clusters (17-50 cells) are counted.

CXF 280 = test: Two-layer soft agar culture of human tumour xenografts; format: cell-based; conditions: T/C ≤30%
Experimental: (§2) The in vitro activity of glycoconjugates of quinolone-a was determined on human tumour xenografts in a two-layer soft agar culture system according to Hamburger and Salmon (Science 197: 461-463).
(§3) The solid tumours were initially grown in the athymic naked mouse (NMRI nu/nu), obtained by surgery and comminuted mechanically. Individual cells were then obtained by incubation in an enzyme mixture of collagenase 0.05%, DNAse 0.07% and hyaluronidase 0.1% in RPMI at 37° C. for 30 minutes. The cells were washed 2× and then passed through a sieve of 200 μm and 20 μm mesh width.
(§4) The base layer comprises 0.2 ml of Iscoves's Modified Dulbeccos Medium with 20% foetal calf serum and 0.7% agar. 40,000 to 200,000 cells in 0.2 ml of the same medium and 0.4% agar were applied to this layer in 24 multiwell plates. The cytostatic substances were added in 0.2 ml of medium.
(§5) The cultures were incubated at 37° C. in a 7% CO2 atmosphere for 6 to 15 days. The colonies which had grown were then counted under an inverting microscope, the living colonies being stained with a tetrazolium chloride dyestuff 24 hours before the evaluation.
(§6) The effect of the active compound is expressed in per cent of surviving colonies compared with the colony count of untreated plates (T/C=colony count treated×100/control count untreated).
(§7) A substance is active if the T/C value is ≤30%.
(§8) This value is shown as the IC70 value in μg/ml in Table 8.

HT 29 [5] = test: as above; format: cell-based; conditions: T/C ≤30%
Experimental: as §2, §3, §4, §5, §6, §7, §8

LXFL 529 = test: as above; format: cell-based; conditions: T/C ≤30%
Experimental: as §2, §3, §4, §5, §6, §7, §8

LXFS 538 = test: as above; format: cell-based; conditions: T/C ≤30%
Experimental: as §2, §3, §4, §5, §6, §7, §8

MEXF 989 = test: as above; format: cell-based; conditions: T/C ≤30%
Experimental: as §2, §3, §4, §5, §6, §7, §8

OVXF 1023 = test: as above; format: cell-based; conditions: T/C ≤30%
Experimental: as §2, §3, §4, §5, §6, §7, §8

OVXF 899 = test: as above; format: cell-based; conditions: T/C ≤30%
Experimental: as §2, §3, §4, §5, §6, §7, §8

SW 480 [6] = test: as above; format: cell-based; conditions: T/C ≤30%
Experimental: as §2, §3, §4, §5, §6, §7, §8

Experimental for SW-480: Cleavage Kinetics With Cells
(§9) 2.25 ml of PBS are incubated together with 225 μl of a cell suspension (30 mg/ml) and 25 μl of substrate stock solution (1 mg/ml in 3% dimethyl sulphoxide in PBS) at 37° C. After 1 hour and 24 hours, samples of in each case 1 ml are taken, mixed with 1 ml of ethanol and left to stand at 4° C. for 20 minutes. After centrifugation (5 minutes at 3500 rpm), 100 μl of supernatant are taken for the HPLC analysis.
Experimental for hepatoma: Cleavage Kinetics With Cells
as §9

Structure (SMILES) | IC50 (HT 29 [1]) | IC50 (SW 480 [2]) | IC50 (B 16 F 10) | % cleavage in human blood 1 hour [3] | % cleavage in human blood 24 hours [3] | IC50 [μg/ml] CSF-induced proliferation of bone marrow parent cells of the mouse [4] | IC70 /μg/ml (CXF 280) | IC70 /μg/ml (HT 29 [5]) | IC70 /μg/ml (LXFL 529) | IC70 /μg/ml (LXFS 538) | IC70 /μg/ml (MEXF 989) | IC70 /μg/ml (OVXF 1023) | IC70 /μg/ml (OVXF 899) | IC70 /μg/ml (SW 480 [6]) | % cleavage in SW-480 1 hour (SW-480) | % cleavage in SW-480 24 hours (SW-480) | % cleavage in hepatoma 1 hour (hepatoma) | % cleavage in hepatoma 24 hours (hepatoma)
COC1C(O)C(C)OC(Oc2ccc(NC(=S)NCCCCC(NC(=S)Nc3ccc(OC4OC(C)C(O)C(OC)C4O)cc3)C(=O)NC3C=CCC4CN(c5c(F)cc6c(=O)c(C(=O)O)cn(C7CC7)c6c5Cl)CC43)cc2)C1O (mixture of isomers) [Example 11.7, N-{N^α,N^ε -Bis-[O-(3--methyl-β-L-fucosyl)-4-hydroxy-phenylamino-thiocarbonyl]-D -lysyl}-quinolone-a] | 13 µM | 12 µM | 15 µM | 0% | 0% | 2.9 µg/mL | > 100 µg/mL | 56 µg/mL | 4 µg/mL | 18 µg/mL | 3 µg/mL | 136 µg/mL | 234 µg/mL | 18 µg/mL | 0% | 0% | 0% | 0%
CO[C@H]1[C@H](O)[C@@H](Oc2ccc(NC(=S)N[C@H](C)C(=O)NC3C=CCC4CN(c5c(F)cc6c(=O)c(C(=O)O)cn(C7CC7)c6c5Cl)CC43)cc2)O[C@@H](C)[C@H]1O (stereo partly drawn) [Example 12.1, N-{N'-[O-(3-O-Methyl-β-L-fucosyl)-4hydroxy-phenylamino-thiocarbonyl]-D -alanyl}-quinolone-a] | 1.5 µM | 1 µM | 0.1 µM | 0% | 0% | 0.21 µg/mL | 70 µg/mL (≈ 87.5 µM) | 6 µg/mL (≈ 7.5 µM) | 0.9 µg/mL (≈ 1.12 µM) | 0.4 µg/mL (≈ 0.5 µM) | < 0.3 µg/mL | 12 µg/mL (≈ 15 µM) | 45 µg/mL (≈ 56.2 µM) | 8 µg/mL (≈ 10 µM) | 0% | 0% | 0% | 0%
COC1C(O)C(C)OC(Oc2ccc(NC(=S)NC(CCCCN)C(=O)NC3C=CCC4CN(c5c(F)cc6c(=O)c(C(=O)O)cn(C7CC7)c6c5Cl)CC43)cc2)C1O [Example 12.5, N-{N^α -[O-(3-O-Methyl-β-L-fucosyl)-4-hydroxy-phenylamino-thiocarbonyl]-lysyl}-quinolone-a] | 4 µM | 1 µM | 0.2 µM |  |  |  | < 0.3 µg/mL | 11 µg/mL (≈ 12.8 µM) | 2 µg/mL (≈ 2.33 µM) | < 0.3 µg/mL | 0.5 µg/mL (≈ 0.583 µM) | 9 µg/mL (≈ 10.5 µM) | 55 µg/mL (≈ 64.1 µM) | 10 µg/mL (≈ 11.7 µM) |  |  |  | 
